According to US20220389001A1, “ATF6 MODULATORS AND USES THEREOF” (Praxis Biotech LLC, priority 2019, published 2022):

Legend:
ATF6 [1] = experiment: ERSE ATF6-luciferase assay in absence of ER stress (U2-OS ATF6 TRE-luciferase reporter cells); assay type: cell-based, Human; details: 8 hr, normalized to maximal activation with Tg; for ATF6 activity @ 1 μM- No Tg [%]: 1 μM test compound; for ATF6 activity @ 10 μM- No Tg [%]: 10 μM test compound
Experimental: (§1) To understand how exemplary compounds of the invention modulate the activity of ATF6 in absence or presence of endoplasmic reticulum (ER) stress, a Human bone osteosarcoma (U2-OS)-based TRE-luciferase reporter stable cell line was generated to determine the modulation of transcription of ATF6 target genes.
(§2) U2-OS cells were obtained from the American Type Culture Collection (ATCC HTB-96, ATCC Manassas, Va.) and were cultured with growing medium containing Dulbecco's Modified Eagle's Medium (DMEM) (Cat. No.: SH30023.02, HyClone) supplemented with fetal bovine serum (FBS) 10% (Cat. No.: 16000044, Gibco) and 1% penicillin-streptomycin antibiotic cocktail (Cat. No.: SV30010, Hyclone).
(§3) Cignal Lenti ATF6 luc reporter (Qiagen #CLS-6031L) was used to produce a stable cell line in U2-OS cells (U2-OS ATF6 TRE-luciferase reporter). The lenti ATF6 reporter is a preparation of replication incompetent, VSV-g pseudotyped lentivirus particles expressing the firefly luciferase gene under the control of a minimal (m)CMV promoter and tandem repeats of the ATF6 transcriptional response element (TRE). The number of response elements as well as the intervening sequence between response elements has been experimentally optimized to maximize the signal to noise ratio.
(§4) Exemplary compounds of the invention and reference compounds were prepared from powder as 10 mM stock solutions in dimethyl sulfoxide (DMSO; Cat. No. #D2650, Sigma Aldrich) and stored at −80° C. in presence of N2 neutral atmosphere.
(§5) For the primary screening, 40,000 U2-OS ATF6 TRE-luciferase reporter cells were plated in poly-D-lysine (Cat. No.: P2636, Sigma) pre-coated white 96-well plates (Thermo Scientific Nunc #136101) with 100 μL of growing medium. Cells were incubated in humidified chambers for 24 hr.
For testing exemplary compounds in absence of ER-stress, cells were treated for 8 hr with 100 μL growing medium containing either vehicle (DMSO), 1 or 10 μM test compound or 0.1 μM Tg. The final concentration of DMSO in each well was kept at 0.3%. Plates were incubated in humidified chambers.
After 8 hr of incubation, plates were cooled down to room temperature for 10 min prior to luciferase assays. Luciferase reactions were performed as above. Luminescence was read by integration of 1 s with a gain of 110 in a Synergy 4 Microplate reader. All measurements were carried out in triplicate.
The average activity determined from the wells containing vehicle only (DMSO, 0% of ATF6 activity) was used as blank and subtracted from the rest of measurements. The percentage of modulation of exemplary compound was calculated by normalizing values to potential maximal activation with Tg.
ATF6 activities of exemplary compounds at 1 and 10 μM in absence of Tg-induced ER stress in the U2-OS ATF6 TRE-luciferase reporter cells were determined and are shown in Table 3.

ATF6 [2] = experiment: ERSE ATF6-luciferase assay in presence of Tg-induced ER stress (U2-OS ATF6 TRE-luciferase reporter cells); assay type: cell-based, Human; details: Tg only = 100%; for ATF6 activity @ 10 μM [%] / activity at 10 µM: 10 μM test compound; for ATF6 activity @ 10 μM [%] / ATF6 activity @ 1 μM [%]: 8 hr; for activity at 1 µM / activity at 10 µM: Homo sapiens, U2OS, 8 h; for activity at 1 µM / ATF6 activity @ 1 μM [%]: 1 μM test compound
Experimental: as §1, §2, §3, §4, §5
For testing exemplary compounds in presence of ER-stress, cells were pre-treated for 30 min with 50 μL growing medium containing either vehicle (DMSO), 1 or 10 μM test compound. After this pre-incubation, 50 μL of a solution containing 0.2 μM of the ER stress-inducer thapsigargin (Tg) was added to the appropriate wells. The Tg solution also contains vehicle or test compounds at 1 or 10 μM as indicated. The final concentration of DMSO in each well was kept at 0.3%. Plates were incubated for 8 hr in humidified chambers.
After the 8 hr incubation, plates were cooled down to room temperature for 10 min prior to the luciferase assays. Luciferase reactions were performed using Luciferase Assay System (Cat. No.: E4550, Promega). Briefly, each well was washed with 100 μl of PBS 1× and, then, 20 μl of lysis reagent was added into each well. Plates were shaken for 10 min and, then, 50 μl of Luciferase Assay Reagent was added to each well. Luminescence was determined by integration of 1 s with a gain of 110 in a Synergy 4 Microplate reader. All measurements were carried out in triplicate.
The average activity determined from the wells containing vehicle only (DMSO, 0% of ATF6 activity) was used as blank and subtracted from the rest of measurements. The average activity determined from the wells containing Tg only was used as 100% of ATF6 activity. The percentage of modulation of exemplary compounds was calculated by normalizing values to potential maximal activation with Tg.
ATF6 activities of exemplary compounds at 1 and 10 μM in presence Tg-induced ER stress tested in the U2-OS ATF6 TRE-luciferase reporter cells were determined and are shown in Table 2.

| Compound | ATF6 activity @ 1 μM- No Tg [%] (ATF6 [1]) | ATF6 activity @ 10 μM- No Tg [%] (ATF6 [1]) | ATF6 activity @ 10 μM [%] (ATF6 [2]) | activity at 1 µM (ATF6 [2]) | activity at 10 µM (ATF6 [2]) | ATF6 activity @ 1 μM [%] (ATF6 [2]) |
| --- | --- | --- | --- | --- | --- | --- |
| CC(c1ccc(F)cc1F)n1cc(NC(=O)c2cc(-c3ccco3)on2)cn1 (single isomer, unassigned) [Compound 1-16, N-(1-(1-(2,4-difluorophenyl)ethyl)-1H-pyrazol-4-yl)-5-(furan-2-yl)isoxazole-3-carboxamide] | + (+ refers to 0% < % activity < 25% at 1 or 10 μM test compound) | + (+ refers to 0% < % activity < 25% at 1 or 10 μM test compound) | ++ (++ refers to 125% < % activity < 150% at 1 or 10 μM test compound) | 100 to 125% | – | – |
| CC(c1c(F)cccc1Cl)n1cc(NC(=O)c2cc(-c3ccco3)on2)cn1 (centres unmarked) [Compound 1-4, N-(1-(1-(2-chloro-6-fluorophenyl)ethyl)-1H-pyrazol-4-yl)-5-(furan-2-yl)isoxazole-3-carboxamide] | – | – | – | > 150% | > 150% | – |
| O=C(Nc1cnn(Cc2ccc(C(F)(F)F)cc2C(F)(F)F)c1)c1cc(-c2ccco2)on1 [Ceapin-A7, reference compound] | – | – | --- (--- refers to <50% at 1 or 10 μM test compound) | – | – | --- (--- refers to <50% at 1 or 10 μM test compound) |
| CC(c1c(F)cccc1Cl)n1cc(NC(=O)c2cc(-c3ccco3)on2)cn1 (single isomer, unassigned) [Compound 1-14, N-(1-(1-(2-chloro-6-fluorophenyl)ethyl)-1H-pyrazol-4-yl)-5-(furan-2-yl)isoxazole-3-carboxamide] | + (+ refers to 0% < % activity < 25% at 1 or 10 μM test compound) | + (+ refers to 0% < % activity < 25% at 1 or 10 μM test compound) | +++ (+++ refers to >150% at 1 or 10 μM test compound) | – | – | +++ (+++ refers to >150% at 1 or 10 μM test compound) |
| O=C(Nc1cnn(C2CCc3cc(C(F)(F)F)ccc32)c1)c1cc(-c2cnccn2)on1 (centres unmarked) [Compound 1-12, 5-(pyrazin-2-yl)-N-(1-(5-(trifluoromethyl)-2,3-dihydro-1H-inden-1-yl)-1H-pyrazol-4-yl)isoxazole-3-carboxamide] | – | – | – | 75 to 100% | 75 to 100% | – |
| CC(c1ccc(F)cc1Cl)n1cc(NC(=O)c2cc(-c3ccco3)on2)cn1 (centres unmarked) [Compound 1-6, N-(1-(1-(2-chloro-4-fluorophenyl)ethyl)-1H-pyrazol-4-yl)-5-(furan-2-yl)isoxazole-3-carboxamide] | – | – | – | 100 to 125% | 75 to 100% | – |
| Cc1c(NC(=O)c2cc(-c3ccco3)on2)cnn1C(C)c1c(Cl)cccc1Cl (centres unmarked) [Compound 1-22, N-(1-(1-(2,6-dichlorophenyl)ethyl)-5-methyl-1H-pyrazol-4-yl)-5-(furan-2-yl)isoxazole-3-carboxamide] | + (+ refers to 0% < % activity < 25% at 1 or 10 μM test compound) | + (+ refers to 0% < % activity < 25% at 1 or 10 μM test compound) | – | 75 to 100% | 100 to 125% | – |
| CC(c1ccc(C(F)(F)F)cc1C(F)(F)F)n1cc(NC(=O)c2cc(-c3cnccn3)no2)cn1 (single isomer, unassigned) [Compound 1-25, N-(1-(1-(2,4-bis(trifluoromethyl)phenyl)ethyl)-1H-pyrazol-4-yl)-3-(pyrazin-2-yl)isoxazole-5-carboxamide] | – | – | - (- refers to 75% < % activity < 100% at 1 or 10 μM) | – | – | - (- refers to 75% < % activity < 100% at 1 or 10 μM) |
| CC(c1ccc(C(F)(F)F)cc1C(F)(F)F)n1cc(NC(=O)c2cc(-c3cnccn3)no2)cn1 (single isomer, unassigned) [Compound 1-26, N-(1-(1-(2,4-bis(trifluoromethyl)phenyl)ethyl)-1H-pyrazol-4-yl)-3-(pyrazin-2-yl)isoxazole-5-carboxamide] | – | – | --- (--- refers to <50% at 1 or 10 μM test compound) | – | – | --- (--- refers to <50% at 1 or 10 μM test compound) |
| CC(c1c(F)cccc1Cl)n1cc(NC(=O)c2cc(-c3ccco3)on2)cn1 (single isomer, unassigned) [Compound 1-15, N-(1-(1-(2-chloro-6-fluorophenyl)ethyl)-1H-pyrazol-4-yl)-5-(furan-2-yl)isoxazole-3-carboxamide] | + (+ refers to 0% < % activity < 25% at 1 or 10 μM test compound) | + (+ refers to 0% < % activity < 25% at 1 or 10 μM test compound) | + (+ refers to 100% < % activity < 125% at 1 or 10 μM) | – | – | + (+ refers to 100% < % activity < 125% at 1 or 10 μM) |
| CC(c1c(Cl)cccc1Cl)n1cc(NC(=O)c2cc(-c3ccco3)on2)cn1 (centres unmarked) [Compound 1-1, N-(1-(1-(2,6-dichlorophenyl)ethyl)-1H-pyrazol-4-yl)-5-(furan-2-yl)isoxazole-3-carboxamide] | + (+ refers to 0% < % activity < 25% at 1 or 10 μM test compound) | + (+ refers to 0% < % activity < 25% at 1 or 10 μM test compound) | – | – | – | – |
| CC(c1ccc(F)cc1F)n1cc(NC(=O)c2cc(-c3ccco3)on2)cn1 (centres unmarked) [Compound 1-5, N-(1-(1-(2,4-difluorophenyl)ethyl)-1H-pyrazol-4-yl)-5-(furan-2-yl)isoxazole-3-carboxamide] | – | – | – | 100 to 125% | > 150% | – |
| CC(c1ccc(F)cc1F)n1cc(NC(=O)c2cc(-c3ccco3)on2)cn1 (single isomer, unassigned) [Compound 1-17, N-(1-(1-(2,4-difluorophenyl)ethyl)-1H-pyrazol-4-yl)-5-(furan-2-yl)isoxazole-3-carboxamide] | + (+ refers to 0% < % activity < 25% at 1 or 10 μM test compound) | + (+ refers to 0% < % activity < 25% at 1 or 10 μM test compound) | + (+ refers to 100% < % activity < 125% at 1 or 10 μM) | – | – | + (+ refers to 100% < % activity < 125% at 1 or 10 μM) |
| CC(c1c(Cl)cccc1Cl)n1cc(NC(=O)c2cc(-c3cccs3)on2)cn1 (centres unmarked) [Compound 1-13, N-(1-(1-(2,6-dichlorophenyl)ethyl)-1H-pyrazol-4-yl)-5-(thiophen-2-yl)isoxazole-3-carboxamide] | + (+ refers to 0% < % activity < 25% at 1 or 10 μM test compound) | + (+ refers to 0% < % activity < 25% at 1 or 10 μM test compound) | – | 75 to 100% | 100 to 125% | – |
| CC(c1ccc(C(F)(F)F)cc1C(F)(F)F)n1cc(NC(=O)c2cc(-c3cnccn3)no2)cn1 (centres unmarked) [Compound 1-11, N-(1-(1-(2,4-bis(trifluoromethyl)phenyl)ethyl)-1H-pyrazol-4-yl)-3-(pyrazin-2-yl)isoxazole-5-carboxamide] | – | – | – | 50 to 75% | 50 to 75% | – |
| O=C(Nc1cnn(C2CCCc3ccccc32)c1)c1cc(-c2ccco2)on1 (centres unmarked) [Compound 1-3, 5-(furan-2-yl)-N-(1-(1,2,3,4-tetrahydronaphthalen-1-yl)-1H-pyrazol-4-yl)isoxazole-3-carboxamide] | – | – | – | 100 to 125% | 125 to 150% | – |
